# Columns and labels:
# SR = experiment: NCI antitumor screen (SRB); format: cell-based; conditions: Homo sapiens
# HCC-2998 = experiment: NCI antitumor screen (SRB); format: cell-based; conditions: Homo sapiens
# MALME-3M = experiment: NCI antitumor screen (SRB); format: cell-based; conditions: Homo sapiens
# M14 = experiment: NCI antitumor screen (SRB); format: cell-based; conditions: Homo sapiens
# OVCAR-8 = experiment: NCI antitumor screen (SRB); format: cell-based; conditions: Homo sapiens
# UO-31 = experiment: NCI antitumor screen (SRB); format: cell-based, human
# PC-3 = experiment: NCI antitumor screen (SRB); format: cell-based; conditions: Homo sapiens
# EGFR = EGFR (Homo sapiens, UniProt P00533); experiment: biochemical; conditions: read-out: IC50 EGFR Inhibition
# Chain of EGFR (P00533 25-1210): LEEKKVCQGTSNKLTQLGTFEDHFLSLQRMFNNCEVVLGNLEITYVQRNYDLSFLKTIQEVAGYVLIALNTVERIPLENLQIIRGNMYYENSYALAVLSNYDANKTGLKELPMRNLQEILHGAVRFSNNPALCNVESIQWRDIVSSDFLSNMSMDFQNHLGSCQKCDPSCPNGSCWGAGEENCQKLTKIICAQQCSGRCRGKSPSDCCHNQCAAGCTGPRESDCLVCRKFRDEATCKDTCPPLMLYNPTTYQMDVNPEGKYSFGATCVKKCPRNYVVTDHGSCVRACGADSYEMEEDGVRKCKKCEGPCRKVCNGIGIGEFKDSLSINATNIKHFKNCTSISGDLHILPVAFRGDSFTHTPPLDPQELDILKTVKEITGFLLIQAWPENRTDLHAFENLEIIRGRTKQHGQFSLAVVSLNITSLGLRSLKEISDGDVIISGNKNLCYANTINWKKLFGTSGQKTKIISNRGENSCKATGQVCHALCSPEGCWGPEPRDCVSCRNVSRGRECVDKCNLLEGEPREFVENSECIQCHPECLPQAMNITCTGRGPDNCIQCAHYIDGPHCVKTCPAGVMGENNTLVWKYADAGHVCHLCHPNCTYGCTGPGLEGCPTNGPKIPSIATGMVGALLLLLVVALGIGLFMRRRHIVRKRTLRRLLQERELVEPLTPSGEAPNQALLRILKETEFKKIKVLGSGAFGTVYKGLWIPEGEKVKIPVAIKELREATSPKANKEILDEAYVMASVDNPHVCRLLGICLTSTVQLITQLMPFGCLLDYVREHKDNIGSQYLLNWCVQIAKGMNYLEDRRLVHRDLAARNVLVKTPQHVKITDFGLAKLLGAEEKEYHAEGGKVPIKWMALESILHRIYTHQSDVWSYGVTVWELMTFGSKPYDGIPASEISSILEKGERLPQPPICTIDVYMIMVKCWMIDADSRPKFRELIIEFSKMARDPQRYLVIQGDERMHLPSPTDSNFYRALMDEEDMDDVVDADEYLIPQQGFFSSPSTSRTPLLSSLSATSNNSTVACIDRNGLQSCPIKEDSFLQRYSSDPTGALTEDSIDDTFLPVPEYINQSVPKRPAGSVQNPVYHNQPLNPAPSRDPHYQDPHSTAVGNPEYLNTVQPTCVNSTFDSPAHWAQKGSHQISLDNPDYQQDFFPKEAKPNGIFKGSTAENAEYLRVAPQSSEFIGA
# Excerpt: (§1) In vitro luminescent EGFR tyrosine kinase assay using Kinase-Glo® MAX as a detection reagent, and In vitro HER2 tyrosine kinase assay using DP‐Glo™ reagent that measures ADP formed from a kinase reaction, this luminescent signal positively correlates with ADP amount and kinase activity. […]
# (§2) 2.1.5. EGFR and Her2 assays
# (§3) In vitro luminescent EGFR tyrosine kinase assay, using Kinase-Glo® MAX as a detection reagent, and In vitro HER2 tyrosine kinase assay, using DP‐Glo™ reagent that measures the adenosine diphosphate (ADP) formed from a kinase reaction, were performed; this luminescent signal positively correlates with ADP amount and kinase activity. In 17 μl of distilled water, 6 μl of Kinase assay buffer and 1 μl ATP and 1 μl PTK substrate were mixed (master mixture). In every well, mix 20 μl of the master mixture and 5 μl of Inhibitor solution (Test Inhibitor) for positive control, and use 5 μl of the same solution without inhibitor (Inhibitor buffer) as the blank solution; add 20 μl of diluted EGFR or Her2 enzyme and incubate at 30°C for 40 min. Add 50 μl of Kinase-Glo Max reagent to each well, cover the plate with aluminum foil and incubate the plate at room temperature for 15 min. Afterward, measure luminescence using the microplate reader. “Blank” value is subtracted from all readings. […]
# HER2 = HER2 (Homo sapiens, UniProt P04626); experiment: biochemical; conditions: read-out: IC50 HER2 Inhibition
# Chain of HER2 (P04626 23-1255): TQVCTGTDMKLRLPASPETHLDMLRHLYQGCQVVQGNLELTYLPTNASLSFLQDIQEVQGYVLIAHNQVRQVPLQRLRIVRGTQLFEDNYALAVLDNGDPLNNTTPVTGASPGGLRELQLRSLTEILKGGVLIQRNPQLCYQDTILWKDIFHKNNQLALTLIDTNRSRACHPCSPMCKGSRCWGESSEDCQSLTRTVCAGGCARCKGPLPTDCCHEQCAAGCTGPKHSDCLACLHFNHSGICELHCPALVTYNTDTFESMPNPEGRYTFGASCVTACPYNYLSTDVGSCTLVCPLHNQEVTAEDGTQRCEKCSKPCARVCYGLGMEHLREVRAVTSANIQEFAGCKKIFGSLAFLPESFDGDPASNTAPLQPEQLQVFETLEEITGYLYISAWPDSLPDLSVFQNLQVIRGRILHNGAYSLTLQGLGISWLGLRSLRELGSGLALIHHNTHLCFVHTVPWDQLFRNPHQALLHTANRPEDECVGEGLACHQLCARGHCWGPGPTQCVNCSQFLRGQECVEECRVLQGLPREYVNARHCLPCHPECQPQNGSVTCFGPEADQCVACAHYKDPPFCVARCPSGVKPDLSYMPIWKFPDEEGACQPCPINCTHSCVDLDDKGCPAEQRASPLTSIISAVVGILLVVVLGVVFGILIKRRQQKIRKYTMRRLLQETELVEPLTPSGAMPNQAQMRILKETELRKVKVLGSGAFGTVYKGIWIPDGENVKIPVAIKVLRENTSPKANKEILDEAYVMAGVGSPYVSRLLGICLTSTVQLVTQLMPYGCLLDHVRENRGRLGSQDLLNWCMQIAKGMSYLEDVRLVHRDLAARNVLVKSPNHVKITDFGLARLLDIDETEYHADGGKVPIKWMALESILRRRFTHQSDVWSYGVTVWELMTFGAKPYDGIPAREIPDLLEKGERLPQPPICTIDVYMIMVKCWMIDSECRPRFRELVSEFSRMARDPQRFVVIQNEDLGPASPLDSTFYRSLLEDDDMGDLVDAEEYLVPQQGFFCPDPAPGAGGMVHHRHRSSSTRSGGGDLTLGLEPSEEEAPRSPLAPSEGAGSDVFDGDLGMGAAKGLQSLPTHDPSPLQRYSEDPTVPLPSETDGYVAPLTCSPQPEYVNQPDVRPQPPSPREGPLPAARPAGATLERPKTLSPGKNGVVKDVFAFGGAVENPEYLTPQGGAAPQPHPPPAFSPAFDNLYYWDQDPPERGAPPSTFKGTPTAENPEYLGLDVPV
# Excerpt: as §1, §2, §3
# [1] = five concentrations 0.01-100 µM
# [2] = one dose 10 µM, read-out: Growth inhibition percentage (GI%)
smiles,measurement,setting,value
CCN(CC)c1ccc(/C=N/NC(=O)c2ccc(S(C)(=O)=O)cc2)c(O)c1 [Compound 20],GI50,SR; [1],63 nM
same,inhibition at 10 µM,SR; [2],91%
same,GI50,HCC-2998; [1],301 nM
same,inhibition at 10 µM,HCC-2998; [2],60.4%
same,GI50,MALME-3M; [1],440 nM
same,inhibition at 10 µM,MALME-3M; [2],86%
same,GI50,M14; [1],171 nM
same,inhibition at 10 µM,M14; [2],96.6%
same,GI50,OVCAR-8; [1],250 nM
same,inhibition at 10 µM,OVCAR-8; [2],83.2%
same,inhibition at 10 µM,"UO-31; Homo sapiens, UO-31, UO-31, one dose 10 µM, read-out: Growth inhibition percentage (GI%)",100%
same,GI50,"UO-31; Homo sapiens, UO-31, five concentrations 0.01-100 µM",139 nM
same,Growth inhibition percentage (GI%),"UO-31; UO-31, one dose 10 µM",>100%
same,GI50,PC-3; [1],319 nM
same,inhibition at 10 µM,PC-3; [2],50.8%
same,IC50,EGFR,190 ± 10 nM
same,IC50,HER2,70 ± 20 nM

# — publication PMC8288134, “Synthesis, potential antitumor activity, cell cycle analysis, and multitarget mechanisms of novel hydrazones incorporating a 4-methylsulfonylbenzene scaffold: a molecular docking study” (Journal of Enzyme Inhibition and Medicinal Chemistry, 2021)
